For one molecule, LC50% a.i. and LC99% a.i. results are on record in patent US8025894B2, “Innovative formulation” (Endura S.p.A., priority 2005, dated 2011).

The subject of the data set is Bemisia tabaci (whitefly) biotype B. Description: Mortality assay (leaf dip bioassay). Type of data set: in vivo. To be noted: adult insects on treated cotton leaf discs, mortality evaluated at 24 and 48 hours. How it is done: The “leaf dip bioassay” used for testing the activity of insecticides against Bemisia tabaci (whitefly) biotype B, was similar to that described by Cahill, M et al, Bull. Entomol. Res. 85, 181-187, 1995.
Cotton plants (Gossypium hirsutum L.) were grown without any exposure to the insecticides. The leaves were cut up into disc shapes and immersed in an aqueous solution of insecticide containing 0.01% of Agral then left to dry at 25° C.
Control leaves were immersed in Agral and distilled water only.
About 20 adult insects were placed onto the small discs of treated cotton leaf.
The insects were allowed to feed and maximum mortality was evaluated at 24 and 48 hours.
LC50% a.i. (=active ingredient) and LC99% a.i. indicate the quantity of insecticide able to achieve mortality for 50% and 99% of the insects tested.
As a comparison, the data obtained with commercial bifenthrin in the absence of the synergistic compound (PBO) and the data obtained with commercial bifenthrin in a mixture with the same quantity of PBO present in the formulation product of example 1 are given in the same table.

Turning to `Cc1c(COC(=O)[C@@H]2[C@H](/C=C(\Cl)C(F)(F)F)C2(C)C)cccc1-c1ccccc1` (racemic) [Bifenthrin], the LC50% a.i. (quantity of insecticide giving 50% mortality) was determined as 0.01 ppm. Moreover, under “quantity of insecticide giving 99% mortality”, the LC99% a.i. is 257 ppm.
